The values that follow come from patent US8436039B2, “Inhibitors of the ATB(0,+) transporter and uses thereof” (Georgia Health Sciences University Research Institute, Inc., priority 2008, dated 2013).

One experiment concerns the target T1, human ATB^0,+ (Homo sapiens, UniProt Q9UN76).
T1 construct: The human ATB^0,+ cDNA was cloned from an MCF7 cell (a human mammary epithelial cancer cell line) cDNA library; expressed in transfected cells; host or cells: Xenopus laevis oocytes injected with 50 ng capped cRNA
T1 sequence (Q9UN76 1-642): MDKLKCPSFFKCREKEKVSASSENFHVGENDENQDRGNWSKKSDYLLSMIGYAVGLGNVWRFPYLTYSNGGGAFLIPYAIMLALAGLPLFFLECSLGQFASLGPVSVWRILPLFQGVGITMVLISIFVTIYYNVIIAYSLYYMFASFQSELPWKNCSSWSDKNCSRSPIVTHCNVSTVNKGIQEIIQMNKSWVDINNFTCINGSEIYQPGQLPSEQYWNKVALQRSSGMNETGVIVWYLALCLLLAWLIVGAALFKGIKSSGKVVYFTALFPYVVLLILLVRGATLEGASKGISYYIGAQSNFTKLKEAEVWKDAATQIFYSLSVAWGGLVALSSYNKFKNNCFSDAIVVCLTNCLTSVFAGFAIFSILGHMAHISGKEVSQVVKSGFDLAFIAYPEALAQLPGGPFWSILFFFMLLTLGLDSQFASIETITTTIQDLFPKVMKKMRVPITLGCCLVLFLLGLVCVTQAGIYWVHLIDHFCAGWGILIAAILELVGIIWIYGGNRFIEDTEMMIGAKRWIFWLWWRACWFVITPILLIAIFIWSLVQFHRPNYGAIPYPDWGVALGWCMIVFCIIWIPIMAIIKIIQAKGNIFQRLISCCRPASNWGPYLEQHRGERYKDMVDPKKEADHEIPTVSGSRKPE
As to the kind of experiment: L-tryptophan-induced inward currents in X. laevis oocytes expressing human ATB^0,+. It counts as cell-based. The note with it: 1 mM added simultaneously with 20 μM L-tryptophan. How it is done:
Capped cRNA from the cloned mouse or human ATB^0,+ cDNA was synthesized using the mMESSAGE mMACHTNE kit (Ambion, Austin, Tex., U.S.A.). Mature oocytes (stage IV or V) from X. laevis were injected with 50 ng of cRNA. Uninjected oocytes served as controls. The oocytes were used for electrophysiological studies 3-6 days after cRNA injection. Electrophysiological studies were performed by the two-microelectrode voltage-clamp method (Nakanishi et al., 2001, J. Physiol. 532, 297-304). Oocytes were superfused with an NaCl-containing buffer (100 mM NaCl, 2 mM KCl, 1 mM MgCl2, 1 mM CaCl2, 3 mM Hepes, 3 mM Mes and 3 mM Tris, pH 7.5), followed by the same buffer containing tryptophan derivatives. The membrane potential was clamped at −50 mV. The differences between the steady-state currents measured in the presence and absence of substrates were considered as the substrate-induced currents. In the analysis of the saturation kinetics of substrate-induced currents, the kinetic parameter K0.5 (i.e. substrate concentration necessary for induction of half-maximal current) was calculated by fitting the values of the substrate-induced currents to the Michaelis-Menten equation. The Na^+ and Cl^− activation kinetics of substrate-induced currents were analysed by measuring the substrate-specific currents in the presence of increasing concentrations of Na^+ (concentration of Cl^− kept constant at 100 mM) or in the presence of increasing concentrations of Cl^− (concentration of Na^+ kept constant at 100 mM). In these experiments, the composition of the superfusion buffer was modified to contain 2 mM potassium gluconate, 1 mM MgSO4 and 1 mM calcium gluconate in place of KCl, MgCl2 and CaCl2 respectively. The data from these experiments were analysed by the Hill equation to determine the Hill coefficient (h; number of Na^+ and Cl^− ions involved in the activation process). The kinetic parameters were determined by using the commercially available computer program Sigma Plot, version 6.0 (SPSS, Chicago, Ill., U.S.A.). […]

Experiment [1] has as its system MDA-MB231, MDA-MB361 and MDA-MB453 cell lines. As to the kind of experiment: Colony formation assay, malignant ATB^0,+-negative mammary epithelial cell lines. Format: cell-based, human. To be noted: 2.5 mM, 12 days, no or very low ATB^0,+. How it is done:
The colony formation assay was performed as described previously (Thangaraju et al., 2006, Cancer Res. 66, 11560-11564). Mammary epithelial cells were seeded on to 6-well plates (10000 cells per well) in DMEM. After 24 hours, cells were exposed to varying concentrations of α-methyl-DL-tryptophan or 1-methyl-DL-tryptophan for 2 weeks, changing medium every 2 days. Cells were washed with PBS and fixed in 100% (v/v) methanol for 30 min followed by staining with KaryoMAX Giemsa stain for one hour. The wells were washed with water and dried overnight at room temperature. Finally, the dye in the wells was dissolved with 1% SDS in 0.2 M NaOH for one hour, and the attenuance of the released dye was measured at 630 nm.
The present studies have identified α-methyl-DL-tryptophan as a blocker of ATB^0,+ and also have shown that the compound is able to block the transport of amino acids via ATB^0,+ under conditions that stimulate those in vivo in terms of amino acid concentrations. […] For this, we treated the human mammary epithelial cell lines with 2.5 mM α-methyl-DL-tryptophan in the presence of regular culture medium for 12 days in clonogenic assay and quantified the colony formation for each cell line in the presence and absence of α-methyl-DL-tryptophan (FIG. 8). […]

With `Cn1cc(CC(N)C(=O)O)c2ccccc21` (racemic) [1-methyl-DL-tryptophan], on human ATB^0,+, the “effect on inward currents induced by 20 μM L-tryptophan” value is on record as “greater than that with 20 μM L-tryptophan alone”.
For the molecule `CC(N)(Cc1c[nH]c2ccccc12)C(=O)O` (racemic) [α-methyl-DL-tryptophan], the “effect on inward currents induced by 20 μM L-tryptophan” value on human ATB^0,+ is given as “blocked completely”. Further, the “effect on colony formation” value in experiment [1] is reported as “little or no effect”.
